Data reported in US11472841B2, “Immunogenic composition” (MENICON CO., LTD., priority 2018, dated 2022).

Columns and labels:
female BALB/c mice [1] = experiment: Example 4: tissue specimen of back skin including administration site; format: in vivo; settings: 7 days after the administration, intradermal
Method: (§1) Five-week-old female BALB/c mice (supplied by Charles River) were divided into administration groups of 2 mice and an untreated group of 3 mice. 100 μL of each test sample described in Table 5 was intradermally administered to mice of corresponding groups on days 0, 7, and 14 of the administration. […] The collected blood was incubated at 25° C. for 30 minutes and then preserved overnight at 4° C. to assemble a blood clot, centrifugation was performed at 1,000 to 1,200 × g at 4° C. for 20 minutes, and a supernatant was collected. The blood IgG value of the collected serum was measured using an IgG ELISA kit. The serum was diluted 200,000 times with a dilution buffer attached to the kit. In addition, the back skin including the administration site of the third test sample was collected after collecting blood to prepare a tissue specimen.
The method for preparing the above-described test sample is as follows. […]

female BALB/c mice [2] = experiment: Example 4: blood IgG value (IgG ELISA kit) after three intradermal administrations; format: in vivo; settings: in combination with any antigen protein (albumin, casein, lysozyme, papain); day 21
Method: as §1
The method for preparing the above-described test sample is as follows. That is, an antigen solution was prepared by dissolving an antigen protein in water, and the antigen solution and a 1.5 w/v % peptide composition (peptide compositions A to D described in Table 1) or PuraMatrix™ (which is manufactured by Corning Japan Ltd. and is a self-assembling peptide composition containing 1.0 w/v % of Ac-[…]-CONH2 (SEQ ID No: 18)) were mixed with each other so that the self-assembling peptide concentration became 0.75 w/v % and the antigen protein concentration became 0.25 mg/mL (=0.025 w/v %) to prepare a test sample. In addition, a sample obtained by mixing the above-described antigen solution with physiological saline so that the antigen protein concentration became 0.25 mg/mL was used as a control sample.

[3] = antigen protein; cited from earlier work

Row | Molecule | remaining of test sample inside the skin (female BALB/c mice [1]) | immunogenicity (blood IgG) (female BALB/c mice [2]) | Isoelectric point [3]
1 | SEQ ID No: 16 (RLDLRLNLRLDLR; self-assembling peptide) |  | enhanced | 
2 | OVA: Ovalbumin antigen, Wako Pure Chemical Industries (protein, UniProt P01012 2-386, looked up) Ovalbumin: GSIGAASMEFCFDVFKELKVHHANENIFYCPIAIMSALAMVYLGAKDSTRTQINKVVRFDKLPGFGDSIEAQCGTSVNVHSSLRDILNQITKPNDVYSFSLASRLYAEERYPILPEYLQCVKELYRGGLEPINFQTAADQARELINSWVESQTNGIIRNVLQPSSVDSQTAMVLVNAIVFKGLWEKAFKDEDTQAMPFRVTEQESKPVQMMYQIGLFRVASMASEKMKILELPFASGTMSMLVLLPDEVSGLEQLESIINFEKLTEWTSSNVMEERKIKVYLPRMKMEEKYNLTSVLMAMGITDVFSSSANLSGISSAESLKISQAVHAAHAEINEAGREVVGSAEAGVDAASVSEEFRADHPFLFCIKHIATNAVLFFGRCVSP |  |  | OVA: Ovalbumin (isoelectric point: 4.5, manufactured by Wako Pure Chemical Industries, Ltd., Cat. No.

Second part, led by results:

Row | remaining of test sample inside the skin (female BALB/c mice [1]) | Molecule | immunogenicity (blood IgG) (female BALB/c mice [2]) | Isoelectric point [3]
3 | the test sample remained inside the skin | Ac-RLDLRLALRLDLR-NH2 [SEQ ID No: 1] | enhanced | 
4 | the test sample remained inside the skin | Ac-RLDLRLSLRLDLR-NH2 [SEQ ID No: 15] | enhanced | 
